# Publication PMC7998760, “Solubility, Permeability, Anti-Inflammatory Action and In Vivo Pharmacokinetic Properties of Several Mechanochemically Obtained Pharmaceutical Solid Dispersions of Nimesulide” (Molecules, 2021)
# What was measured:
# [1] = Description: In this study, the stability constant and stoichiometry of the complex were calculated using Benesi-Hildebrant diagram (Equation (1)):Δδmax/Δδ − 1 = 1/[CD]^n × 1/K(1) where K is the stability constant of the complex, and Δδ is change of chemical shift.
# Measurement of K values at different temperatures at 30–50 °C allows us to calculate the thermodynamic parameters of the HP-β-CD complex. From the dependence of R × lnK vs. 1/T using formulas (Equation (2)) and (Equation (3)), one can calculate the main thermodynamic parameters of complexation: the change in the Gibbs energy, enthalpy, and entropy:R × lnK = −ΔH^0/T + ΔS^0(2) ΔG^0 = ΔH^0 − TΔS^0(3)
# ^1H-NMR spectra were recorded on an Avance III 500 MHz spectrometer (Bruker, Rheinstetten, Germany) in D2O and CD3OD (99.8%, Sigma-Aldrich, Moscow, Russia) solutions as well as in their mixture. Spin-spin relaxation time T2 was measured by the Carr-Purcell-Meiboom-Gill (CPMG) pulse sequence.
# histamine edema = test: Anti-inflammatory study, histamine edema model; assay type: in vivo, CD-1 mice; settings: oral single administration, doses 5, 10, 20 mg/kg of NIM, p < 0.05 compare to control
# Description: (§1) CD-1 mice weighing 20–25 g were obtained from the vivarium of the Institute of Cytology and Genetic SB RAS. Animals were kept under standard conditions with free access to water and food with humidity and temperature-controlled rooms with light and dark 12 h cycles.
# “Histamine swelling” was reproduced by introducing of 0.05 mL of 0.1% histamine solution under aponeurosis of the hind paw. The test compounds were administered by oral gavage 1 h before administration of inflammatory agent. The swelling degree was evaluated after 5 h by comparison the legs mass with inflammatory agent (m1) and without it (m2). The degree of inflammation (ID) for each mouse was calculated by the following formula (Equation (6)): (6) ID=m1−m2/m2×100%
# The statistical analysis was performed using Mann–Whitney U test. Data shown as Mean ± SEM. p < 0.05 was considered to be statistically significant.
# [2] = Pharmacokinetic study after a single per os administration; assay type: in vivo, CD-1 mice
# Description: as §1
# Mice were randomized by weight and divided into groups and deprived of food for 12 h prior to the experiment. […] Complexes were dissolved in distilled water. […] Blood samples were withdrawn after decapitation at 5, 15, 30, 45, 60, 90 120, 180 and 300 min (n = 5 for each time point) after introduction. Then, all the blood samples were centrifuged for 15 min at 1640× g and the supernatant serum fraction was transferred to empty tubes and kept frozen at −20 °C prior to analysis. The preparation of a blood sample was carried out according to the method described by. Briefly, the mouse plasma sample (0.2 mL) was transferred into glass test tube. 3 mL mixture solvent of ethyl acetate and hexane (90:10%, v/v) was added to the tubes and was vortexed for 3 min. Following a centrifugation for 7 min, 1.5 mL of organic phase was removed to another tube and evaporated. The dry residue was reconstituted with 100 μL of acetonitrile, vortexed for 30 s and 20 μL of the mixture was injected into the chromatograph. However, in contrast with noted reference we use HPLC conditions as described in HPLC analyses of this section.
# [3] = alcohol solution, 400 nm
# [4] = CD-1, mouse, serum, oral, 20 mg/kg
# [5] = single per os, NIM dose 20 mg/kg, mice
compound,measurement,setting,value
"CS(=O)(=O)Nc1ccc([N+](=O)[O-])cc1Oc1ccccc1 [NIM, N-(4-nitro-2-phenoxyphenyl)methanesulfonamide]","stability constant of the complex with HP-β-CD, cycle A","[1]; 30 °C, 1:1 complex",140 M⁻¹
same,"stability constant of the complex with HP-β-CD, cycle B","[1]; 30 °C, 1:1 complex",490 M⁻¹
same,"TΔS^0 of complexation with HP-β-CD, cycle A",[1]; 303 K,-6.7 ± 0.3 kcal/mol
same,"TΔS^0 of complexation with HP-β-CD, cycle B",[1]; 303 K,-8.2 ± 0.5 kcal/mol
same,"ΔG^0 of complexation with HP-β-CD, cycle B",[1]; 303 K,-3.0 kcal/mol
same,"ΔH^0 of complexation with HP-β-CD, cycle A",[1]; 303 K,-10.5 ± 0.5 kcal/mol
same,"ΔH^0 of complexation with HP-β-CD, cycle B",[1]; 303 K,-12.2 ± 1.0 kcal/mol
same,dose of NIM with significant anti-inflammatory effect,histamine edema,20 mg/kg
same,Tmax,[2]; [4],0.572 h
same,half-life,[2]; [4],1.48 ± 0.347 h
same,AUC 0-inf_obs,[2]; [5],3978.88 ± 242.62 mkg/mL*min
same,Cmax,[2]; [5],38.43 ± 3.25 mkg/mL
same,stability constant of the chelate complex with magnesium ions,[3],"22,300 ± 7400 M^−1"
